Read-outs that look alike come from different tables or passages of the source.
Experiments:
[1] = In vivo pharmacokinetics in CD-1 mice; design: species or system mouse; conditions: for Vd: read-out: Vss; for Cmax: read-out: Cmax; for concentration at 24 hr / concentration at 8 hr: read-out: Clast; for concentration at 8 hr: 8 hr post-dose
Procedure: (§1) PK studies on 3 and 25 were carried out in CD-1 mice. Three males were dosed via oral gavage needle for oral administration at 20 mg/kg (10 mL/kg) or via intravenous administration at 5 mg/kg (10 mL/kg). Blood samples were taken at time intervals between 5 min and 24 hr from each animal.
The PK studies of 1 were performed by WuXi AppTec and PK studies of 3 and 25 were performed by Touchstone Biosciences (Peng et al., 2006b; Peng et al., 2001; Peng et al., 2006a; Peng et al., 2009). Male CD-1 mice were fed a standard laboratory rodent diet and housed in individual cages on a 12 hr light and 12 hr dark cycle with room temperature maintained at 22±3° C. and relative humidity at 50±20%. Animals were typically fasted overnight before dosing, with food returned after the 6 hr blood samples were obtained. Water was provided ad libitum throughout the study. The dosing solution of each test compound was prepared in a desired oral or intravenous formulation. Three to four animals were dosed via gavage needle for oral administration at 10-20 mg/kg (10-20 mL/kg) or via tail vein injection for IV administration at 2-5 mg/kg (2-5 mL/kg). […] Fluid replacement (1.5 mL of 0.9% NaCl injection, USP) was administered subcutaneously once after the 2 hr blood sampling. Blood samples were collected in BD Microtainer tubes coated with anticoagulant, placed on ice, and within 30 min, centrifuged at 15,000 g for 5 min to obtain plasma samples. All plasma samples were stored at −70° C. until analysis.
Plasma samples were prepared as follows. Three volumes of acetonitrile containing internal standard was added to one volume of plasma to precipitate proteins. Samples were centrifuged (3000 g for 10 min) and supernatant removed for analysis by LC-MS/MS. Calibration standards and quality controls were made by preparation of a 1 mg/mL stock solution and subsequently a series of working solutions in methanol:water (1:1, v/v) which were spiked into blank plasma to yield a series of calibration standard samples in the range of 1.0 ng/mL to 10 μg/mL and quality control samples at three concentration levels (low, middle and high). All incurred PK/PD plasma samples were treated identically to the calibration standards and quality control samples. LC-MS-MS analysis was performed utilizing multiple reaction monitoring for detection of characteristic ions for each drug candidate, additional related analytes and internal standard.
Plasma concentrations were measured as described above to determine a concentration vs. time profile. The area under the plasma concentration vs time curve (AUC) was calculated using the linear trapezoidal method. Fitting of the data to obtain pharmacokinetic parameters was carried out using non-compartmental analysis. Key PK parameters reported following intravenous administration are as follows: terminal half-life t1/2, initial plasma concentration C0, area under the plasma concentration vs. time curve AUC, volume of distribution at steady-state Vss, total plasma clearance CLp, and mean residence time MRT. Key PK parameters reported following extravascular administration are as follows: terminal half-life t1/2, maximum plasma concentration Cmax, time to reach maximum plasma concentration tmax, area under the plasma concentration vs. time curve AUC, mean residence time MRT, and bioavailability F. All parameters are expressed for individual animals as well as mean, standard deviation, and coefficient of variation.

[2] = test system: PTZ-induced seizure activity in zebrafish larvae; assay: Zebrafish PTZ-induced seizure model; assay type: in vivo; conditions: for anti-seizure activity / minimal effective concentration: 7 dpf larvae; for anti-seizure activity: PTZ; for minimal effective concentration: 1 hr pre-treatment, 10 mM PTZ, read-out: Anti-seizure activity: lowest tested dose with significant difference vs PTZ-only group
Procedure: The zebrafish PTZ-induced seizure model was used to determine the most promising compounds' in vivo efficacy. Zebrafish larvae (7 dpf) were treated with the compound for 1 hr prior to inducing seizures with PTZ. As established by previous larval zebrafish anti-seizure studies (Rahn et al., 2014; Hansen et al., 2004; Baraban et al., 2005), total distance traveled by each fish after seizure induction was measured and used as a proxy for seizure activity. Following collection of locomotor data, observation of a startle response and visual inspection for abnormal morphology confirmed that alterations in swim activity were not caused by compound toxicity.
We induced seizures in 7 dpf zebrafish larvae by the addition of […] PTZ as originally developed by Baraban et al., 2005. In a 48-well plate, one 7-dpf zebrafish was added per well. Larvae were dosed with each compound at a sub-lethal dose 1 hr prior to PTZ treatment. Two control rows were included with each experiment—tank water only control and PTZ only. Seizures were induced by adding PTZ to wells to yield a final concentration of 10 mM. After 5 min, the plate was transferred to the Daniovision instrument (Noldus Information Technology) and the chamber light was turned on. After 2 min, MediaRecorder (Noldus) was used to record video for 15 min. A small number of videos were acquired at 25 frames per second, but the majority of data were acquired at 60 frames per second. […] Ethovision XT software (Noldus) was used to track the fish movement from the video images in order to calculate the total distance traveled over 15 min. All experimental comparisons were made between animals from the same clutch.
Statistical analyses were performed with GraphPad Prism 6 software. For the in vitro HT22 oxytosis assay, dose-response data were fit using GraphPad Prism's log(inhibitor) vs normalized response-variable slope parameters to determine EC50 values and 95% confidence intervals. For the zebrafish locomotive anti-seizure activity data, multiple comparisons were made using a one-way analysis of variance (ANOVA) with a Kruskal-Wallis Test, followed by the Dunn's Method to determine significant differences between all pairs or between control and experimental groups using the Dunn Method for Joint Ranking. Differences were considered statistically significant when p<0.05. Data from zebrafish experiments are represented as scatter dot plots of individual measurements, with means±standard deviation indicated by bars.

[3] = Clinical observations in dosed mice; assay type: in vivo; conditions: for clinical symptoms during the IV study: intravenous 5 mg/kg, CD-1 mice
Procedure: as §1
PO PK experiments were repeated for 25, with oral dosing at 20 mg/kg and 10 mL/kg of a suspension with 1% Tween 80:1% carboxymethylcellulose in water.
Table 2 provides a summary of efficacy studies in vivo in mice, and in rat brain slices, using the 5% DMSO:95% Neobee formulation.

[4] = intravenous, 3 and 25 at 5 mg/kg, 5 mg/kg
[5] = male, CD-1, mouse, plasma, iv, 5 mg/kg, intravenous, 3 and 25 at 5 mg/kg, read-out: CL
[6] = male, CD-1, mouse, plasma, iv, 5 mg/kg, intravenous, 3 and 25 at 5 mg/kg
[7] = male, CD-1, mouse, plasma, iv, 5 mg/kg, 3 and 25 at 5 mg/kg
[8] = male, CD-1, mouse, plasma, po, 20 mg/kg, oral 20 mg/kg, 20% DMA-40% PEG300-40% H2O
[9] = male, CD-1, mouse, plasma, po, 20 mg/kg, oral 20 mg/kg, suspension 1% Tween 80:1% carboxymethylcellulose in water
[10] = male, CD-1, mouse, plasma, intravenous, 5 mg/kg
[11] = male, CD-1, mouse, plasma, intravenous, 3 and 25 at 5 mg/kg
[12] = male, CD-1, mouse, plasma, oral 20 mg/kg, 20% DMA-40% PEG300-40% H2O
[13] = oral 20 mg/kg, 20% DMA-40% PEG300-40% H2O
[14] = male, CD-1, mouse, plasma, ip, 20 mg/kg, intraperitoneal 20 mg/kg, 5% DMSO: 95% neobee
[15] = male, CD-1, mouse, plasma, iv, 5 mg/kg, intravenous 5 mg/kg, 20% DMA: 40% PEG300: 40% H2O
[16] = male, CD-1, mouse, plasma, po, 20 mg/kg, oral 20 mg/kg, 5% DMSO: 95% Neobee
[17] = oral 20 mg/kg, 5% DMSO: 95% Neobee

CC(C)CCOC1=CC(=O)c2ccccc2C1=O [Compound 25, 2-(Isopentyloxy)naphthalene-1,4-dione]
AUCinf/D ([1]; intravenous, 5 mg/kg): 242 h·(ng/mL)/(mg/kg)
tlast ([1]; intravenous, 5 mg/kg): 24 h
CL [1, 4]: 69 mL/min/kg
Vss [1, 4]: 13 L/kg
clearance [1, 5]: 68.8 mL/min/kg
Vd [1, 6]: 13.2 L/kg
AUC(0-inf) [1, 7]: 1210 ng·h/mL
AUC(0-t) [1, 7]: 1200 ng·h/mL
MRT inf [1, 7]: 3.2 h
half-life [1, 7]: 4.31 h
AUC(0-inf) [1, 8]: 11500 ng·h/mL
AUC(0-t) [1, 8]: 7360 ng·h/mL
MRT inf [1, 8]: 7.84 h
Tmax [1, 8]: 0.333 h
half-life [1, 8]: 5.56 h
Cmax [1, 8]: 2080 ng/mL
AUC(0-inf) [1, 9]: 1950 ng·h/mL
half-life [1, 9]: 3.49 h
Cmax [1, 9]: 282 ng/mL
bioavailability ([1]; male, CD-1, mouse, plasma, po, 20 mg/kg, oral 20 mg/kg, suspension 1% Tween 80:1% carboxymethylcellulose in water, read-out: oral bioavailability (F)): 40.3%
concentration at 24 hr [1, 10]: 2.26 ng/mL
C0 [1, 11]: 1600 ng/mL
concentration at 8 hr [1, 12]: 531 ng/mL
decrease of Cmax and AUC, suspension vs solution formulation ([1]; oral 20 mg/kg): 6-7 fold
AUCinf/D [1, 13]: 576 h·(ng/mL)/(mg/kg)
Cmax/D [1, 13]: 104 (ng/mL)/(mg/kg)
tlast [1, 13]: 8 h
T1/2 ([1]; oral 20 mg/kg, 20% DMA-40% PEG300-40% H2O, 20 mg/kg): 5.6 h
oral bioavailability (F) ([1]; oral 20 mg/kg, suspension 1% Tween 80:1% carboxymethylcellulose in water, 20 mg/kg): 40%
anti-seizure activity [2]: decrease seizures in a zebrafish model of epilepsy in a dose-dependent manner
minimal effective concentration ([2]; Danio rerio): ≤ 5 µM
inhibition in vivo at 2.5 µM ([2]; Danio rerio, 2.5 μM, read-out: reduction of PTZ-induced locomotor activity): 45%
clinical symptoms during the IV study [3]: no abnormal clinical symptoms
clinical symptoms after oral dosing ([3]; oral 20 mg/kg, suspension 1% Tween 80:1% carboxymethylcellulose in water): No abnormal clinical symptoms

CCC#CCNC1=CC(=O)c2ccccc2C1=O [Compound 3, 2-(Pent-2-yn-1-ylamino)naphthalene-1,4-dione]
tlast ([1]; intraperitoneal 20 mg/kg, 5% DMSO: 95% neobee): 24 h
Clast ([1]; intravenous 5 mg/kg, 20% DMA: 40% PEG300: 40% H2O): 1.37 ng/mL
AUCinf/D ([1]; intravenous, 5 mg/kg): 89.6 h·(ng/mL)/(mg/kg)
tlast ([1]; intravenous, 5 mg/kg): 24 h
t1/2 [1, 4]: ~15 h
Kp ([1]; male, CD-1, mouse, brain/plasma, listed under intravenous 5 mg/kg, read-out: Brain Plasma Ratio): 0.373
AUC(0-t) [1, 14]: 463 ng·h/mL
half-life [1, 14]: 7.25 h
AUC(0-inf) [1, 15]: 448 ng·h/mL
AUC(0-t) [1, 15]: 421 ng·h/mL
MRT inf [1, 15]: 4.28 h
half-life [1, 15]: 14.7 h
clearance ([1]; male, CD-1, mouse, plasma, iv, 5 mg/kg, intravenous 5 mg/kg, 20% DMA: 40% PEG300: 40% H2O, read-out: CLp): 188 mL/min/kg
Vd [1, 15]: 48.6 L/kg
clearance [1, 5]: 188 mL/min/kg
Vd [1, 6]: 48.6 L/kg
AUC(0-inf) [1, 7]: 448 ng·h/mL
AUC(0-t) [1, 7]: 421 ng·h/mL
MRT inf [1, 7]: 4.28 h
half-life [1, 7]: 14.7 h
AUC(0-inf) [1, 16]: 688 ng·h/mL
AUC(0-t) [1, 16]: 682 ng·h/mL
MRT inf [1, 16]: 5.71 h
Tmax [1, 16]: 4 h
half-life [1, 16]: 3.34 h
Cmax [1, 16]: 90.2 ng/mL
AUC(0-inf) [1, 8]: 992 ng·h/mL
AUC(0-t) [1, 8]: 738 ng·h/mL
MRT inf [1, 8]: 5.82 h
Tmax [1, 8]: 0.139 h
half-life [1, 8]: 5.27 h
Cmax [1, 8]: 394 ng/mL
concentration at 24 hr ([1]; male, CD-1, mouse, plasma, intraperitoneal 20 mg/kg, 5% DMSO: 95% neobee): 1.47 ng/mL
concentration at 24 hr [1, 10]: 1.37 ng/mL
C0 [1, 11]: 1520 ng/mL
concentration at 24 hr ([1]; male, CD-1, mouse, plasma, oral 20 mg/kg, 5% DMSO: 95% Neobee): 1.21 ng/mL
concentration at 8 hr [1, 12]: 33.1 ng/mL
F [1, 17]: 38.4%
tlast [1, 17]: 24 h
AUCinf/D [1, 13]: 49.6 h·(ng/mL)/(mg/kg)
Cmax/D [1, 13]: 19.8 (ng/mL)/(mg/kg)
F [1, 13]: 55.3%
tlast [1, 13]: 8 h
anti-seizure activity [2]: decrease seizures in a zebrafish model of epilepsy in a dose-dependent manner
minimal effective concentration ([2]; Danio rerio): ≤ 5 µM
inhibition in vivo at 5 µM ([2]; Danio rerio, 5 μM, read-out: reduction of PTZ-induced locomotor activity): 62%
inhibition in vivo at 10 µM ([2]; Danio rerio, 10 μM, read-out: reduction of PTZ-induced locomotor activity): 80%
inhibition in vivo at 20 µM ([2]; Danio rerio, 20 μM, read-out: reduction of PTZ-induced locomotor activity): 91%
pigmented urine ([3]; efficacy studies, 5% DMSO:95% Neobee formulation): showed pigmented urine
clinical symptoms during the IV study [3]: no abnormal clinical symptoms

Source: patent US11771685B2, “Compounds for the treatment of neurological or mitochondrial diseases” (MUSC FOUNDATION FOR RESEARCH DEVELOPMENT, priority 2018, dated 2023)
